“Also recorded” adds a separate entry of the source. Where two headings read alike, the source gives them in different places.

The subject of data set [1] is hiPSO-derived IECs. The experiment in a line: Cell viability of dispersed hiPSO-derived IECs (CellTiter-Glo 3D). To be noted: for IEC-selective dose-dependent cytotoxicity: dose-dependent analysis, dispersed IECs from hiPSOs and hPIOs versus Caco-2 cells, Fig. 4D; for toxicity against IECs (cell viability): indicated doses, dispersed hiPSO-derived IECs, Fig. 5A, B; for effect of kinase inhibitor on dose-dependent cytotoxicity induced by YC-1: 10 µM inhibitor with 0-30 µM YC-1, 48 h, Fig. 6A-C. On the technique in general: In ATP-based viability assays light output follows the ATP content of the culture.

Data set [2] concerns hiPSO-derived IECs.
Data set [3] relates to hPIO-derived IECs. The experiment in a line: Cell viability of dispersed hPIO-derived IECs (CellTiter-Glo 3D). The note with it: 1 µM, 48 h, dispersed IECs of hPIOs, Fig. 4A.
The subject of data set [4] is CCND1 and VIL1 mRNA in hiPSO-derived IECs. Description: qRT-PCR of mRNA levels in hiPSO-derived IECs. It is filed as cell-based, human. The note with it: 0, 1, 10 µM, 48 h, Fig. 5E. The procedure:
Total cellular RNA was extracted using RNeasy Mini Kit (Qiagen). Reverse transcription was performed using a high-capacity cDNA Reverse Transcription Kit (Thermo Fisher Scientific). The mRNA levels were measured by fluorescence real-time PCR on StepOnePlus (Thermo Fisher Scientific) using PrimeTime qPCR Probes (Integrated DNA Technologies). The 18S rRNA levels were used as an internal control to normalize the mRNA levels of each gene.
A general note: Quantitative PCR measures a nucleic acid by following its amplification.

Data set [5] relates to caspase-8, RIP1, caspase-3, PARP, XIAP in hiPSO-derived IECs. Description: Western blot analysis of apoptotic proteins in hiPSO-derived IECs. It is filed as cell-based, human. To be noted: 0, 1, 10 µM, 14 h, Fig. 5D. On the procedure: After the preparation of lysis buffer [50 mM Tris-HCl (pH 8.0), 150 mM NaCl, 1% Triton X-100, 0.5% deoxycholate, 0.1% sodium dodecyl sulfate (SDS), and a protease inhibitor cocktail (Nacalai Tesque)], cell lysates were subjected to SDS-polyacrylamide gel electrophoresis and transferred onto a polyvinylidene difluoride membrane. The membrane was blocked with Blocking One (Nacalai Tesque) for 1 h at room temperature (RT), incubated overnight at 4 °C with primary antibodies against caspase-3 (1:1000), caspase-8 (1:1000), PARP (1:1000), RIP1 (1:1000), XIAP (1:100), and β-actin (1:200), and incubated with secondary antibodies for 1 h at RT. Chemiluminescent signals were determined using Fusion Solo S (Vilber). A pre-stained ladder protein marker (XL-Ladder Broad, APRO Science) that was not visible as a chemiluminescent signal was used to determine the position of molecular weights. Full-scan images were represented in the Supplementary Information.
In general terms: A western blot detects proteins with antibodies after separation by electrophoresis.

For data set [6], the system named is Caco-2 cells. Description: Cell viability of Caco-2 cells (CellTiter-Glo 3D), counter-assay. It is filed as cell-based, human. To be noted: dose-dependent analysis, Fig. 4D.

For `CC1=C(/C=C/C(C)=C/C=C/C(C)=C/C(=O)Nc2ccc(O)cc2)C(C)(C)CCC1` [4-HPR, N-(4-hydroxyphenyl)retinamide], the IEC-selective dose-dependent cytotoxicity entry in data set [1] is recorded as “identified”.

As to `CN(C)CC[C@H](CSc1ccccc1)Nc1ccc(S(=O)(=O)NC(=O)c2ccc(N3CCN(Cc4ccccc4-c4ccc(Cl)cc4)CC3)cc2)cc1[N+](=O)[O-]` [ABT-737], in data set [1], the IEC-selective dose-dependent cytotoxicity result is given as “identified”.

Regarding `COC(=O)c1ccc(O)c(NC(=O)COc2ccc(C34CC5CC(CC(C5)C3)C4)cc2)c1` [LW6], the “toxicity against IECs (cell viability)” value in data set [1] (48 h) is on record as “little toxicity”.

Take `CCCCCCCC/C=C\CCCCCCCC(=O)NCCc1ccc(O)c(O)c1` [N-oleoyldopamine]: the IEC-selective dose-dependent cytotoxicity entry in data set [2] is “identified”.

As for `COc1cccc(-c2cc(=O)c3ccccc3o2)c1N` [PD98059], the “inhibition of cytotoxicity of 1 µM YC-1” value in data set [1] (0-30 µM PD98059 with 1 µM YC-1, 48 h, Fig. 6D) is given as “in a dose-dependent manner”. The “inhibition of cytotoxicity caused by 4-HPR” value in data set [1] (10 µM PD98059 with 0-30 µM 4-HPR, 48 h, Fig. 6F) is “failed to inhibit”. The “inhibition of cytotoxicity caused by ABT-737” value in data set [1] (10 µM PD98059 with 0-30 µM ABT-737, 48 h, Fig. 6E) is listed as “failed to inhibit”. In addition, the “inhibition of cytotoxicity caused by N-oleoyldopamine” value in data set [1] (10 µM PD98059 with 0-30 µM N-oleoyldopamine, 48 h, Fig. 6H) is given as “failed to inhibit”. Further, the “inhibition of cytotoxicity caused by ivermectin” value in data set [1] (10 µM PD98059 with 0-30 µM ivermectin, 48 h, Fig. 6G) is “failed to inhibit”. For the same molecule, the “inhibition of YC-1-induced cytotoxicity in IECs from hiPSOs expanded with Matrigel” value in data set [1] (10 µM PD98059 with 1 µM YC-1, 48 h, Figure S5) is recorded as “inhibited”. For the same molecule, the “effect of kinase inhibitor on dose-dependent cytotoxicity induced by YC-1” value (“effect of kinase inhibitor” below) in data set [1] was “substantially prevented”.

Consider `CS(=O)(=O)c1ccc(Oc2cc(F)cc(C#N)c2)c2c1[C@H](O)C(F)(F)C2` [PT-2385], for which the “toxicity against IECs (cell viability)” value in data set [1] (48 h) was “little toxicity”.

In the case of `C[S+]([O-])c1ccc(-c2nc(-c3ccncc3)c(-c3ccc(F)cc3)[nH]2)cc1` (stereo not drawn) [SB203580], the “effect of kinase inhibitor” value in data set [1] is on record as “almost no effect”.

For the molecule `CCc1c2c(nc3ccc(O)cc13)-c1cc3c(c(=O)n1C2)COC(=O)[C@]3(O)CC` [SN-38], the “cytotoxic effect (cell viability)” value in data set [3] and in data set [2] was “confirmed” each time.

Turning to `Oc1c2ccccc2c2c3c(cccc13)N=N2` [SP600125], the “effect of kinase inhibitor” value in data set [1] is “almost no effect”.

For the molecule `OCc1ccc(-c2nn(Cc3ccccc3)c3ccccc23)o1` [YC-1, 3-(5′-hydroxymethyl-2′-furyl)-1-benzyl indazole], in data set [2], the IEC-selective dose-dependent cytotoxicity result was “identified” and the “cytotoxicity against IECs” value is “significant cytotoxicity”. In addition, in data set [4], the “CCND1 mRNA levels” value is on record as “downregulated” and the “VIL1 mRNA levels” value is “downregulated”. Moreover, in data set [5], the “anti-apoptotic protein XIAP level” value is reported as “decreased”; the “cleavage of caspase-8, RIP1, caspase-3 and PARP” value was “dose-dependently induced the cleavage”. Further, the “cytotoxicity against Caco-2 cells” value in data set [6] is reported as “least cytotoxicity; also recorded: very little”.

Take `COC(=O)Nc1c(N)nc(-c2nn(Cc3ccccc3F)c3ncc(F)cc23)nc1N` [vericiguat]: in data set [1] (48 h), the “toxicity against IECs (cell viability)” value is on record as “little toxicity”.
